In ChEMBL document CHEMBL1201862, “PubChem BioAssay data set” (2004):
Calls of active or inactive are those of the source.

Assays:
[1] = non-specific 3'UTR reporter inhibition in Clone20-Shn3RL – cell-based, Renilla luciferase, cherry-picked, counter-screen for Shn3 inhibitor project, dose response (AID 624133); format: functional
[2] = reduction of Shn3 3'UTR-driven luciferase in osteoblasts – cell-based, Clone20 osteoblasts, firefly luciferase, cherry-picked, dose response (AID 624132); format: functional;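 also: firefly luciferase luminescence from reporter carrying the Shn3 3'UTR in osteoblasts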
[3] = loss of viability in HepG2 cells – cell-based, CellTiter-Glo, cherry-picked, cytotoxicity control for Shn3 inhibitor project, dose response (AID 624134); format: functional
[4] = molecular target: T1, Calpain-2 catalytic subunit (Sus scrofa, UniProt P43367); assay: m-calpain protease blockers, concentration series – biochemical, fluorogenic peptide substrate, dose response (AID 1420); format: functional
T1 sequence (P43367 whole entry): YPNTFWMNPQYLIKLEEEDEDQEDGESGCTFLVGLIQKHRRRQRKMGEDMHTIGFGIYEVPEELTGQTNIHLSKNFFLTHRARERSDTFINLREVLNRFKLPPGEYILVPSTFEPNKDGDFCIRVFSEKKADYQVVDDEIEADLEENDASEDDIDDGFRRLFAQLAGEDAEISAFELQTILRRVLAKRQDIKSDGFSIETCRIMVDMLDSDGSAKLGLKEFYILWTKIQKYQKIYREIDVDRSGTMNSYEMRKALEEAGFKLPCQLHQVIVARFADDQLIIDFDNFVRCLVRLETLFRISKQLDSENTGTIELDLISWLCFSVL

[5] = microbe, parasite or virus in culture; format: functional; details: Mycobacterium tuberculosis
cells [6] = format: functional
[7] = Luminescence Cell-Based Dose Response HTS to Identify Activators of Luciferase Translation or Activity in H4 […] Cells. [Related pubchem assays: 1829 (Project Summary), 1814 (Primary HTS)]; format: functional
Large T antigen = Large T antigen (Simian virus 40, UniProt P03070); format: functional, Betapolyomavirus macacae;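 also: Confirmatory-stage PubChem screen for compounds that inhibit SV40 T antigen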
[8] = molecular target: T2, Corticotropin-releasing factor receptor 2/Corticotropin-releasing factor-binding protein (Homo sapiens, UniProt P24387+Q13324); assay: activators of CRF receptor 2 with binding protein – uHTS hits, confirmation (AID 602473); format: functional; details: read-out: EC50_Mean
T2 sequence (Q13324 whole entry): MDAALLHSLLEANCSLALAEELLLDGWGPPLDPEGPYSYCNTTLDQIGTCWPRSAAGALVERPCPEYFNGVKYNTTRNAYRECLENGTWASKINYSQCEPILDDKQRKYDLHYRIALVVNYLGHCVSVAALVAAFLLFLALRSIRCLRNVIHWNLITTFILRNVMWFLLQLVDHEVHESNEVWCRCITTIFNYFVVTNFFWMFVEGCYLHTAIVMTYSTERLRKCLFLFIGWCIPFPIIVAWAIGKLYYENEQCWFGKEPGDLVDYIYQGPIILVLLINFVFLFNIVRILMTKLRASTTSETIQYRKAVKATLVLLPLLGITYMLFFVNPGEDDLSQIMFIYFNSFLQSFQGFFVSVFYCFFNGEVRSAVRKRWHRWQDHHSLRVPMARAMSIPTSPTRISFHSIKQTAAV
T2 sequence (P24387 whole entry): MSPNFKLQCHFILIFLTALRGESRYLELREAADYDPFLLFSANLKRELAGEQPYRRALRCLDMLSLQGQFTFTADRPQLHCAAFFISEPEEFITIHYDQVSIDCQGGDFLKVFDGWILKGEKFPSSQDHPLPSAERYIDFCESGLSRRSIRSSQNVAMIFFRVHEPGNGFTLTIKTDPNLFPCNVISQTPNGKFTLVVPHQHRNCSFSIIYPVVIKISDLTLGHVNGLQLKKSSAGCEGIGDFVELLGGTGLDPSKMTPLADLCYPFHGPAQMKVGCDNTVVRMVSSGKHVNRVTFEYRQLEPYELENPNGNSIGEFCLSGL

[9] = molecular target: T2, Corticotropin-releasing factor receptor 2/Corticotropin-releasing factor-binding protein; assay: Dose Response confirmation of uHTS hits for small molecule antagonists of the CRF-binding protein and CRF-R2 receptor complex.; format: functional; details: read-out: IC50_Mean
[10] = Luminescence Cell-Based Dose Retest to Confirm Inhibitors of Cancer Stem Cells. [Related pubchem assays (depositor defined):AID2717, AID2721]; format: functional; details: Homo sapiens
[11] = NIH3T3 cell viability loss – ATP luminescence, mouse fibroblasts, counter-screen, dose response (AID 2010); format: functional, cell-based;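 also: cells exposed to compound for about 90 hours before reading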
[12] = Trypanosoma cruzi growth suppression in host cells – NIH3T3 host cells, beta-gal luminescence, confirmation (AID 2044); format: functional, cell-based;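 also: intracellular parasites grown in NIH/3T3 mouse fibroblasts as host cells; luminescent beta-galactosidase reporter signal from transgenic T. cruzi replicating inside host cells; inhibitors lower the luminescence signal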
cells [13] = assay: cells
H4 = assay: Luminescence Cell-Based Dose Response HTS to Identify Activators of 5'UTR Stem-Loop Driven Prion Protein mRNA Translation in H4 Neuroglioblastoma Cells. [Related pubchem assays: 1829 (Project Summary), 1814 (Primary HTS)]; format: functional; details: Homo sapiens
cells [14] = format: functional, cell-based
cells [15] = format: functional, cell-based; remark: listed apart in the source
[16] = molecular target: T3, Heat shock factor protein 1 (Mus musculus, UniProt P38532); assay: decrease of HSF1-responsive luciferase luminescence – cell-based, NIH3T3, dose retest, confirmation (AID 2382); format: functional;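 also: NIH3T3 fibroblasts with HSF1-driven luciferase reporter stressed by proteasome inhibitor MG132; luminescence from HSF1-driven luciferase expression after 8 hours of MG132 stress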
T3 sequence (P38532 whole entry): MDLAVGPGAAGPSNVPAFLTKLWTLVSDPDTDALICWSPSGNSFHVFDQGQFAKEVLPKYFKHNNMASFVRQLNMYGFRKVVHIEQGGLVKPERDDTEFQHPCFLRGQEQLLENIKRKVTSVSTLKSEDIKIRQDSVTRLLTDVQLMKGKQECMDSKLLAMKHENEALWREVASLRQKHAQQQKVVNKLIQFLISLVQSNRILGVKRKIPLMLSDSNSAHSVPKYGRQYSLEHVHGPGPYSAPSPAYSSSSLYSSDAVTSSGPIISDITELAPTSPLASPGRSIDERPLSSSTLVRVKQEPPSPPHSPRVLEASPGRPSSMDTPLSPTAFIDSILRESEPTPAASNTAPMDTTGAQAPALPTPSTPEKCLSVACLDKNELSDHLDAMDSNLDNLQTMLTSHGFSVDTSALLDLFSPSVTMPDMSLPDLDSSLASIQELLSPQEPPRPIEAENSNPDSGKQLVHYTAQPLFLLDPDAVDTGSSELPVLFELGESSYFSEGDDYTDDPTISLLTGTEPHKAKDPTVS

[17] = THP-1 cell cytotoxicity, dose response, cytotoxicity control for non-replicating M. tuberculosis project (AID 489025); format: functional
[18] = NIH-3T3 fibroblast cytotoxicity, dose response, cytotoxicity control, cell-based, fluorescence, Alamar Blue, secondary assay (AID 2327); format: functional;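 also: NIH-3T3 mouse fibroblasts cultured with fluconazole at 8 µg/mL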
[19] = fluconazole-exposed Candida albicans growth modulators – fluorescence, retest, confirmation (AID 2467); format: functional, cell-based

Sequence of Large T antigen (P03070 whole entry): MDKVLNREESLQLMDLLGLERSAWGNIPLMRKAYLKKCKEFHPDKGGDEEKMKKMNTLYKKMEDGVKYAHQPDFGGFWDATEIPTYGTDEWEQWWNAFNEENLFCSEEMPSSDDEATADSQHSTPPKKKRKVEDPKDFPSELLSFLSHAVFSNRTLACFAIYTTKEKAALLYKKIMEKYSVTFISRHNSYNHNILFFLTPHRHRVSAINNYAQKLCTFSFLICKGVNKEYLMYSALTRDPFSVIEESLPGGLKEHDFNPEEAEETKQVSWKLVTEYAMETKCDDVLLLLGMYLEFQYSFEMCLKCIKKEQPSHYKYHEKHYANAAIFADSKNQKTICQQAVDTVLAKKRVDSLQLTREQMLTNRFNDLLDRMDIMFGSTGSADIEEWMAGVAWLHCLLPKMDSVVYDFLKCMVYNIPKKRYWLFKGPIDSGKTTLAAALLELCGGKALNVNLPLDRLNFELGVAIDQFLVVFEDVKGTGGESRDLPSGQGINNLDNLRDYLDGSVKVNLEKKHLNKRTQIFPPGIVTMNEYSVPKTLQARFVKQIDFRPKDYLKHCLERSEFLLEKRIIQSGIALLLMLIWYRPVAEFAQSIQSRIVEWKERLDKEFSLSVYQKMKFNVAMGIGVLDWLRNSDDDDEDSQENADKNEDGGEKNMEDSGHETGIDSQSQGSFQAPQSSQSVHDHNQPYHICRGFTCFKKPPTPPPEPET

CN(c1ccccc1)S(=O)(=O)c1cc(C(=O)OCC(=O)N2CCN(C(=O)c3ccco3)CC2)ccc1Cl
AC50 [1]: 30.6 µM (active) | AC50 [2]: 62.9 µM (active) | AC50 [3]: > 70 µM (inactive)

Cn1c(=O)c2c3c(sc2n2c(SCC(N)=O)nnc12)CC(C(C)(C)C)CC3 (centres undefined)
IC50 [4]: 42.9 µM (not active) | CC50 [5]: > 40 µM (active)

Cc1ccc2[nH]c(C)c(CCNC(=O)c3cc4cc([N+](=O)[O-])ccc4oc3=O)c2c1
IC50 (cells [6]): 4.92 µM (active) | CC50 [5]: > 40 µM (active)

CC(C)c1ccc(NC(=O)NC2CCCCC2)cc1
EC50 [7]: 0.114 µM (active)

C=CC(=O)Oc1ccc(N2Cc3ccccc3C2=O)cc1
IC50 (Large T antigen): 4.45 µM (active)

CN(C)CCCNC(=O)c1ccccc1Oc1ccccc1
EC50 [8]: > 53 µM (inactive) | IC50 [9]: > 47.1 µM (inactive)

CCn1cnc2cc(NCc3cccc(OC)c3O)ccc21
IC50 (Large T antigen): 13.3 µM (active)

COc1ccccc1CN=C(S)Nc1ccc2nc(N3CCN(C)CC3)cc(C)c2c1
AC50 [10]: 0.168 µM (active) | EC50 [11]: > 60 µM (not active) | EC50 [12]: < 0.1 µM (active) | EC50 (cells [13]): 0.129 µM (active)

Cn1c(C(=O)NCC2CCCO2)cc2oc3ccccc3c21 (centres undefined)
EC50 [7]: 0.289 µM (active) | EC50 (H4): 47 µM (active)

CCc1ccc2nc(N(CCN(C)C)C(=O)c3ccc4ncsc4c3)sc2c1
EC50 [11]: > 60 µM (not active) | EC50 [12]: < 0.1 µM (active) | EC50 (cells [13]): 0.088 µM (active)

CCCCNS(=O)(=O)c1ccc(S(=O)(=O)NCc2ccncc2)cc1
AC50 [1]: 23 µM (active) | AC50 [2]: 2.4 µM (active) | AC50 [3]: 6.47 µM (active)

O=C(CC(Sc1ccc(Br)cc1)C(=O)O)c1ccc(Br)cc1 (centres undefined)
IC50 (Large T antigen): 49.4 µM (active)

CCOc1ccc(CN2CCCC(N3CCN(c4ccc(OC)cc4)CC3)C2)cc1 (centres undefined)
EC50 [11]: > 60 µM (not active) | EC50 [12]: < 0.1 µM (active) | EC50 (cells [13]): 0.042 µM (active)

N#CSCC(=O)N1c2ccccc2CCc2ccccc21
IC50 (Large T antigen): 22 µM (active)

COCc1nnc(NC(=O)c2cc(Cl)ccc2OC)s1
EC50 (cells [14]): > 350 µM (not active) | EC50 (cells [15]): > 350 µM (not active)

Cc1ccc(NC(=O)c2ccc(Nc3c([N+](=O)[O-])cc([N+](=O)[O-])cc3[N+](=O)[O-])cc2)cc1
EC50 [11]: 15.8 µM (active) | EC50 [12]: < 0.1 µM (active) | EC50 [16]: 8.29 µM (active) | EC50 (cells [13]): 0.071 µM (active)

Cc1c(C(=O)NCc2cccnc2)oc2ccccc12
EC50 [8]: > 53 µM (inactive) | IC50 [9]: > 47.1 µM (inactive)

O=C(NCCc1ccccc1)c1cc2sccc2n1Cc1ccccc1
EC50 (cells [14]): > 350 µM (not active) | EC50 (cells [15]): > 350 µM (not active)

O=C(CN1CCN(c2ccccc2O)CC1)Nc1ccccc1C(=O)NCCc1ccccc1
CC50 [5]: > 40 µM (active)

COc1ccc(/C=C2/CCc3ccccc3C2=O)cc1CN1CCOCC1
EC50 [11]: > 60 µM (not active) | EC50 [12]: < 0.1 µM (active) | EC50 (cells [13]): 0.245 µM (active)

Cc1ccc2sc(N(CCCN(C)C)C(=O)c3ccc(S(=O)(=O)N4CCOCC4)cc3)nc2c1C
EC50 [11]: > 60 µM (not active) | EC50 [12]: < 0.1 µM (active) | EC50 (cells [13]): 0.408 µM (active)

COc1ccc(-c2nnn(CC(=O)OC3CCCCC3)n2)cc1OC
IC50 (cells [6]): 11.6 µM (active) | CC50 [17]: > 40 µM (active)

COc1ccc(CN2CCNC(=O)C2CC(=O)N(C)CC2CCOCC2)cc1OC (centres undefined)
EC50 (cells [14]): > 350 µM (not active) | EC50 (cells [15]): > 350 µM (not active)

Cc1cc(NC(=O)C23CC4CC(C2)CC(n2cnc([N+](=O)[O-])n2)(C4)C3)no1
EC50 [11]: > 30 µM (not active) | EC50 [12]: < 0.1 µM (active) | EC50 (cells [13]): 0.089 µM (active)

O=C(Nc1cccc(-c2nc3ccccc3s2)c1)c1cc(-n2cnnc2)ccc1Cl
EC50 [18]: 20.3 µM (inconclusive) | CC50 [5]: > 40 µM (active) | EC50 [19]: 2.98 µM (active)

CC(C)(C)NC(=O)C(c1c[nH]c2ccccc12)N(C(=O)Cn1nnc(-c2ccc(F)cc2)n1)c1cccc(O)c1 (centres undefined)
CC50 [5]: > 40 µM (active)

Cc1ccc(S(=O)(=O)N2CCc3ccccc3CC2)cc1
AC50 [1]: 3.03 µM (active) | AC50 [2]: 3.29 µM (active) | AC50 [3]: 44.8 µM (active)

CCOC(=O)c1cc(S(=O)(=O)Nc2ccc(F)cc2F)cn1C
EC50 [8]: > 53 µM (inactive) | IC50 [9]: > 47.1 µM (inactive)

Cc1ccc(C(=O)C=CNNC(=O)c2ccccc2)cc1
CC50 [17]: > 40 µM (active)

Cc1cccc(COc2ccccc2/C=N/Nc2ccc([N+](=O)[O-])cc2)c1
EC50 [18]: > 150 µM (inactive) | CC50 [5]: > 40 µM (active) | EC50 [19]: > 38 µM (not active)

Cc1nn(-c2ccccc2)c(/N=C/c2ccccc2O)c1-c1ccccc1
EC50 [7]: 45.7 µM (active) | EC50 (H4): 48.4 µM (active)

O=C(CC12CC3CC(CC(C3)C1)C2)N/N=C/c1ccc([N+](=O)[O-])o1
EC50 [11]: > 60 µM (not active) | EC50 [12]: < 0.1 µM (active) | EC50 (cells [13]): 0.019 µM (active)

O=C(N/N=C/c1ccc(O)c(O)c1)c1cc(-c2ccccc2)nc2ccccc12
IC50 (Large T antigen): 54.1 µM (active)

CNc1nc(Cl)nc(Nc2ccccc2)n1
EC50 [8]: > 53 µM (inactive) | IC50 [9]: > 47.1 µM (inactive)
